Here are results for 17 compounds from ChEMBL document CHEMBL4385652, “Discovery of a novel orally active TRPV4 inhibitor: Part 1. Optimization from an HTS hit” (Bioorg Med Chem, 2019).

Bounds are passed on as bounds.

What is called logD is lipophilicity at a set pH, counting ionised and neutral species. Lower therefore signals lower lipophilicity. The CLint scaled is the capacity of the preparation to metabolise the compound, expressed as a volume cleared per time.

One data set is described as follows: physchem. The settings on record: 1-octanol/phosphate buffer, pH 7.4.
A short description of data set [1]: in vitro. The settings on record: human, pooled liver microsomes. For orientation: Liver microsomes are vesicles of endoplasmic reticulum, rich in cytochrome P450 enzymes.
The nature of data set [2]: in vitro. The note with it: rat, pooled liver microsomes.

With `COc1cc(OC)cc(C(=O)Nc2nc(C3CC3)c(N3CCN(C)CC3)s2)c1`, in the data set “physchem”, the pH-dependent lipophilicity (logD) turned out to be 4.

Take `COc1cc(OC)cc(C(=O)Nc2nc(-c3cccnc3)c(N3CCN(C)CC3)s2)c1`: the logD in “physchem” amounted to 4.1. The same measure, in the same setting: under `COc1cc(OC)cc(C(=O)Nc2nc(C3CCC3)c(N3CCN(C)CC3)s2)c1` stands 4.6; under `COc1cc(OC)cc(C(=O)Nc2nc(-c3ccccc3)c(CCCN3CCN(C)CC3)s2)c1`, 4.1; under `COc1cc(OC)cc(C(=O)Nc2nc(-c3ccncc3)c(N3CCN(C)CC3)s2)c1`, 4.1. `Cc1c(C(=O)Nc2nc(C3CCC3)c(CCN3CCCCC3)s2)cnn1-c1ccc(F)cc1`: the CLint scaled at 0.75 h, 0.2 µM in “in vitro [1]” was 527 mL/min/kg; in the data set “in vitro [2]” it was > 1000 mL/min/kg. In addition, the logD in the data set “physchem” turned out to be 4.1. Take `Cc1c(C(=O)Nc2nc(C3CCC3)c(N3CCN(C)CC3)s2)cnn1-c1ccc(F)cc1`: the logD in the data set “physchem” worked out at 4.8. With `COc1cc(OC)cc(C(=O)Nc2nc(-c3ccccc3)c(CN3CCCCC3)s2)c1`, in “physchem”, the logD was 4.9.

On to `CN1CCN(c2sc(NC(=O)c3cc(-c4ccccc4)n(C)n3)nc2C2CCC2)CC1`, for which the logD in “physchem” is 4.9. As for `Cc1nn(-c2ccc(F)cn2)cc1C(=O)Nc1nc(C2CCC2)c(CCN2CCCCC2)s1`, the CLint scaled at 0.75 h, 0.2 µM in the data set “in vitro [1]” came to 120 mL/min/kg; in the data set “in vitro [2]”, 798 mL/min/kg. Besides, in “physchem”, the logD came to 4.5.

The compound `COc1cc(OC)cc(C(=O)Nc2nc(-c3ccccc3)c(CCCN3CCOCC3)s2)c1` had a log distribution coefficient (logD) in “physchem” of 4.7.

As to `Cc1c(C(=O)Nc2nc(C3CCC3)c(N3CCN(C)CC3)s2)cnn1-c1ccc(C#N)cc1`, in “physchem”, the logD came out at 4.

`Cc1c(C(=O)Nc2nc(C3CCC3)c(N3CCN(C)CC3)s2)cnn1C1CCC(F)(F)CC1` displayed a logD in the data set “physchem” of 4.3. `COc1cc(OC)cc(C(=O)Nc2nc(-c3ccccn3)c(N3CCN(C)CC3)s2)c1` registered a logD in “physchem” of 3.7. Same read-out and setting: with `COc1cc(OC)cc(C(=O)Nc2nc(-c3ccccc3)c(C3CCN(C)CC3)s2)c1` the figure was 3.6. Still for that read-out and setting: with `COc1cc(OC)cc(C(=O)Nc2nc(-c3ccccc3)c(CCCN(C)C)s2)c1` the figure was 3.5. In the data set “physchem”, `COc1cc(OC)cc(C(=O)Nc2nc(-c3ccccc3)c(CCCN3CCCCC3)s2)c1` yielded a logD of 4.1.
